Test results as given in ChEMBL document CHEMBL1201862, “PubChem BioAssay data set” (2004).
Calls of active or inactive are those of the source.

Assays:
[1] = target: T1, Microphthalmia-associated transcription factor (Homo sapiens, UniProt O75030); test: reducers of TRPM1 reporter luminescence, concentration series – cell-based, SK-MEL-5, cherry-picked, set 3, MITF inhibitor project, dose response (AID 493073); type: functional;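 also: SK-MEL-5 melanoma cells with luciferase driven by the MITF target TRPM1 promoter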
T1 sequence (O75030 whole entry): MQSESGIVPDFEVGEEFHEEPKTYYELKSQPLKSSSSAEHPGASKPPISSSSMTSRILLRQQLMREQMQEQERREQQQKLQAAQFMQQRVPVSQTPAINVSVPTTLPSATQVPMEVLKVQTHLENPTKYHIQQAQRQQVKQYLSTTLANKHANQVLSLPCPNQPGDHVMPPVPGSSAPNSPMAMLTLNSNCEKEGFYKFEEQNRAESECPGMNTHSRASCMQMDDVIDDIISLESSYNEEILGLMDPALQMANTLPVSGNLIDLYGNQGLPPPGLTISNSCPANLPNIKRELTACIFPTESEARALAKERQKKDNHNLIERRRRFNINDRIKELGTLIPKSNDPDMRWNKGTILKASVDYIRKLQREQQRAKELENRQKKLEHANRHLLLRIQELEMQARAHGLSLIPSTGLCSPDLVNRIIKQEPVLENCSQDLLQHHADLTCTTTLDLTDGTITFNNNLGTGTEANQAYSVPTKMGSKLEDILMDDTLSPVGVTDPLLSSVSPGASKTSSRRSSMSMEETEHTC

[2] = intracellular Trypanosoma cruzi inhibitors in host cells – cell-based, plate reader, cherry-pick samples, set 3, dose response (AID 651818); type: functional;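 also: compounds incubated with infected cells for about four days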
[3] = target: Heat shock protein HSP 90-alpha (Homo sapiens, UniProt P07900); type: functional, organism-based
[4] = target: Cytochrome P450 3A4 (Homo sapiens, UniProt P08684); details: Potency;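 also: confirmatory qHTS run detecting inhibitors and substrates of CYP3A4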
[5] = NIH-3T3 fibroblast cytotoxicity, dose response, cytotoxicity control, cell-based, fluorescence, Alamar Blue, secondary assay (AID 2327); type: functional;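 also: NIH-3T3 mouse fibroblasts cultured with fluconazole at 8 µg/mL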
[6] = luciferase reporter signal suppression in cells – H4 neuroglioma cells, luminescence, dose response (AID 1990); type: functional, cell-based
[7] = test system: BJ; test: BJ-TERT fibroblast viability loss – cell-based, RAS-independent, luminescence, dose response (AID 1933); type: functional; details: Homo sapiens
[8] = Luminescence Cell-Based Dose Response HTS to Identify Inhibitors of 5'UTR Stem-Loop Driven Prion Protein mRNA Translation in H4 Neuroglioblastoma Cells. [Related pubchem assays: 1827 (Project Summary), 1813 (Primary HTS)]; type: functional
[9] = alpha-synuclein stem-loop luciferase translation blockers – H4 neuroglioma cells, luminescence, confirmation (AID 1988); type: functional, cell-based
[10] = test system: BJ; test: cells; type: functional, cell-based; details: Homo sapiens
[11] = fluconazole-exposed Candida albicans growth modulators – fluorescence, retest, confirmation (AID 2467); type: functional, cell-based
[12] = test system: BJ; test: BJ-TERT-LT-ST fibroblast viability loss – cell-based, RAS-independent, luminescence, dose response (AID 1935); type: functional; details: Homo sapiens;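 also: BJ fibroblasts immortalized with TERT plus LT and ST oncogenes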
[13] = DRD fibroblast viability loss – cell-based, non-viral oncogenic, luminescence, dose response (AID 1934); type: functional; details: Homo sapiens
[14] = target: Nonstructural protein 1 (Influenza A virus, UniProt Q194T2); type: functional, Influenza A virus (A/California/07/2009(H1N1))
[15] = target: Paired box protein Pax-8 (Homo sapiens, UniProt Q06710); test: PAX8 transcriptional activity inhibition in RMG-I – RMG-I cells, luciferase, cherry-pick, dose response (AID 687027); type: functional, cell-based;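 also: luciferase reporter driven by Pax8 target thyroperoxidase promoter measured by SteadyGlo luminescence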
[16] = OVCAR-3 cell viability loss – plate reader, dry powder samples, PAX8 inhibitor project, dose response (AID 743044); type: functional, cell-based
[17] = OVCAR8 cell viability loss – plate reader, dry powder samples, PAX8 project, dose response (AID 743197); type: functional, cell-based; details: OVCAR-8
[18] = cells; type: functional, cell-based
[19] = cells; type: functional, cell-based; remark: listed apart in the source
[20] = test system: INS1; test: INS-1E survival protection against cytokine death – cell-based, luminescence, retest, dose response (AID 449756); type: functional; details: Rattus norvegicus;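 also: cell death triggered by IL-1 beta plus TNF-alpha plus IFN-gamma mixture; protective hits raise ATP signal compared with cytokine alone wells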
[21] = reduction of Shn3 3'UTR-driven luciferase in osteoblasts – cell-based, Clone20 osteoblasts, firefly luciferase, cherry-picked, dose response (AID 624132); type: functional;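 also: firefly luciferase luminescence from reporter carrying the Shn3 3'UTR in osteoblasts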
[22] = loss of viability in HepG2 cells – cell-based, CellTiter-Glo, cherry-picked, cytotoxicity control for Shn3 inhibitor project, dose response (AID 624134); type: functional
[23] = non-specific 3'UTR reporter inhibition in Clone20-Shn3RL – cell-based, Renilla luciferase, cherry-picked, counter-screen for Shn3 inhibitor project, dose response (AID 624133); type: functional
[24] = target: T2, Short transient receptor potential channel 4 (Mus musculus, UniProt Q9QUQ5); test: block of DAMGO-driven TRPC4 calcium entry – cell-based, HEK293 TRPC4/mu-opioid, Fluo-4 calcium, dose response (AID 434942); type: functional;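 also: potency of inhibitors blocking the TRPC4 calcium response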
T2 sequence (Q9QUQ5 whole entry): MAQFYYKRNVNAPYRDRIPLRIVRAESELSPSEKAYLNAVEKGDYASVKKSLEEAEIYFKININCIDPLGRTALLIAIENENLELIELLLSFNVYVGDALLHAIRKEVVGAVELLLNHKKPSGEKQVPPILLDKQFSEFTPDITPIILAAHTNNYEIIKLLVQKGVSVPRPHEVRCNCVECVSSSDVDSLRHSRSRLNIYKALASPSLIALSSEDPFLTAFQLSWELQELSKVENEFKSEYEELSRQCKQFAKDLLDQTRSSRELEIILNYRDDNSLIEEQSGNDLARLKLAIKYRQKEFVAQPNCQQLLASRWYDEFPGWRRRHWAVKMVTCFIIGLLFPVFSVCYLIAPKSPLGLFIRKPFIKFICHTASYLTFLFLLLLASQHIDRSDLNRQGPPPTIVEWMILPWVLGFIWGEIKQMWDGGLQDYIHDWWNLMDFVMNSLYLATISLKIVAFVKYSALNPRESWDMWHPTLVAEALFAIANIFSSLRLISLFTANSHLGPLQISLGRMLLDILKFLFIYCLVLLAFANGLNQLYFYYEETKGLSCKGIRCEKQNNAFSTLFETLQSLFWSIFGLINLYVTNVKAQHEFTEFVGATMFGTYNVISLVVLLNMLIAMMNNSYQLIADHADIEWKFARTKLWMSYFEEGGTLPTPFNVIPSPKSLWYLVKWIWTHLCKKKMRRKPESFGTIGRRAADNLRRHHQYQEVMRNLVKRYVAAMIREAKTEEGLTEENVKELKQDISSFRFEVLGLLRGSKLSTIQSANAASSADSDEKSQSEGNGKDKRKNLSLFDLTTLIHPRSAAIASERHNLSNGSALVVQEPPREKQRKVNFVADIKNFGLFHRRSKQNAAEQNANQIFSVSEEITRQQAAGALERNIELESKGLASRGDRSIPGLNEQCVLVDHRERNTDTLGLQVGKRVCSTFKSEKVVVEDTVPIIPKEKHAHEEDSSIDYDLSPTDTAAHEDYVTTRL

[25] = blockers of HIV-1 envelope-mediated cell-cell fusion – cherry-pick, dose response (AID 652057); type: functional, cell-based
[26] = HIV-1 AD8 envelope cell-cell fusion blockers – cherry-pick, dose response (AID 652062); type: functional, cell-based;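 also: luciferase signal from cell-cell fusion driven by HIV-1 clade B AD8 Env; potency is for inhibitors of fusion seen as a drop in luminescence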

Cytochrome P450 3A4, sequence (P08684 whole entry): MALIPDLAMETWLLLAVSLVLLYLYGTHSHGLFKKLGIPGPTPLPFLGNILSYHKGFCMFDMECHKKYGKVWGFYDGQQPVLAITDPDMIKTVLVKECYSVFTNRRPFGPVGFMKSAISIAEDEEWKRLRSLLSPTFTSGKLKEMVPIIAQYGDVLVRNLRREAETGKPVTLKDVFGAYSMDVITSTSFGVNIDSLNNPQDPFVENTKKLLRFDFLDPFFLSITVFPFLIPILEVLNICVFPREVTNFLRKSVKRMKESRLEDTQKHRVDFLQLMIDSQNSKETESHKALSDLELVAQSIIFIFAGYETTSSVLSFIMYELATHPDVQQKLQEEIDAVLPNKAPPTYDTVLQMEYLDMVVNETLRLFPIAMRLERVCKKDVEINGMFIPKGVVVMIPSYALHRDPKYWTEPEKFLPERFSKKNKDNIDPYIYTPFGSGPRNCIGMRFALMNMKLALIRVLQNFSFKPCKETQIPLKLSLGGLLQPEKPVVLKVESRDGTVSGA
Paired box protein Pax-8, sequence (Q06710 whole entry): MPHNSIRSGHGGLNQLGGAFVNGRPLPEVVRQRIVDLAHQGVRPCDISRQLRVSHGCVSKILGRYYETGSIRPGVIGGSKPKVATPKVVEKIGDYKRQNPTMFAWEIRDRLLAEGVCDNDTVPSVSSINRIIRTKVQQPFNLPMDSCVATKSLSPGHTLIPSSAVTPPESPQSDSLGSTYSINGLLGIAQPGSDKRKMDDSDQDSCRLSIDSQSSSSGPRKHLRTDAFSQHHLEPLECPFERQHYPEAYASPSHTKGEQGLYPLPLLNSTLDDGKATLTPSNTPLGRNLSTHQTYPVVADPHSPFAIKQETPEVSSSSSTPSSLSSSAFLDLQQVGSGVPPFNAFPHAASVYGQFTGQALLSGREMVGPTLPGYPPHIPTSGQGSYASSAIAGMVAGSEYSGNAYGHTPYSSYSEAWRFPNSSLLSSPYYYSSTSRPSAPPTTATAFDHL
Nonstructural protein 1, sequence (Q194T2 whole entry): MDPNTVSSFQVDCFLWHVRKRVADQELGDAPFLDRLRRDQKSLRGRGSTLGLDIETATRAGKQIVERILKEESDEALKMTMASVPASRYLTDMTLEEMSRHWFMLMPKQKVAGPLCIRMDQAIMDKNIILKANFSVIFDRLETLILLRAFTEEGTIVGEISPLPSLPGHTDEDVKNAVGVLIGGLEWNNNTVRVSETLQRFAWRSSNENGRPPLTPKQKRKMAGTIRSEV

CCCCNC(=O)Nc1ccc(C2SCCS2)cc1
AC50 [1]: 35.3 µM (active)

C[C@H](CO)N1C[C@H](C)[C@@H](CN(C)Cc2ccc(Oc3ccccc3)cc2)Oc2c(NC(=O)Nc3ccccc3)cccc2C1=O
AC50 [2]: 2.17 µM (active)

O=C1c2cc(Cl)ccc2-c2c(O)cc(Cl)cc21
AC50 [3]: 2.08 µM (active)

COc1c(CC=C(C)C)c2c(c3oc(=O)c(-c4ccc(O)cc4)c(O)c13)C=CC(C)(C)O2 [SCANDENIN]
AC50 [4]: 20 µM (inconclusive)

O=C(NC(=S)NNC(=O)c1cnccn1)c1ccc(Cl)cc1
EC50 [5]: 5.78 µM (active) | EC50 [6]: 11.9 µM (active) | EC50 [7]: 22.8 µM (active) | EC50 [8]: 9.78 µM (active) | EC50 [9]: 9.3 µM (active) | EC50 [10]: > 150 µM (not active) | EC50 [11]: 1.69 µM (active) | EC50 [12]: > 150 µM (not active) | EC50 [13]: 25.5 µM (active) | IC50 [14]: 3.01 µM (active)

C[C@@H]1CN([C@H](C)CO)C(=O)c2cccc(NC(=O)Nc3cccc4ccccc34)c2O[C@@H]1CN(C)S(=O)(=O)c1ccc(Cl)cc1
AC50 [15]: 5.69 µM (active) | AC50 [16]: 43.3 µM (active) | AC50 [17]: 56.3 µM (active)

C[C@H](CO)N1C[C@H](C)[C@H](CN(C)C(=O)Nc2ccc(C(F)(F)F)cc2)Oc2ccc(NC(=O)Nc3ccc(C(F)(F)F)cc3)cc2C1=O
AC50 [2]: 4.23 µM (active)

Oc1c(C(Nc2cccc(C(F)(F)F)c2)c2ccncc2)ccc2cccnc12 (centres undefined)
EC50 [5]: 18.3 µM (active) | EC50 [6]: 11.9 µM (active) | EC50 [18]: 9.32 µM (active) | EC50 [8]: 15.3 µM (active) | EC50 [9]: 9.42 µM (active) | EC50 [11]: 3.42 µM (active) | EC50 [19]: > 350 µM (not active) | IC50 [14]: 8.76 µM (active) | AC50 [3]: 6.48 µM (active) | AC50 [20]: 3.82 µM (active) | AC50 [21]: 5.8 µM (active) | AC50 [22]: 7.21 µM (active) | AC50 [23]: 6.9 µM (active)

O=C1[C@@H]2C(c3cccnc3)=NO[C@@H]2C(=O)N1c1ccc(Br)cc1
AC50 [3]: 5.67 µM (active)

COc1cccc(NC(=O)CCC(=O)N2CC(C)Oc3ccc(C)cc32)c1 (centres undefined)
EC50 [24]: 0.531 µM (active)

COc1ccc2c3c([nH]c2c1)[C@H](CO)N(C(=O)Nc1cccc(F)c1)CC31CCN(S(=O)(=O)c2cccc(C)c2)CC1
AC50 [15]: 5.2 µM (active) | AC50 [16]: 42.4 µM (active) | AC50 [17]: > 70 µM (inactive)

C[C@H]1CN([C@@H](C)CO)C(=O)c2cc(NC(=O)Nc3cccc4ccccc34)ccc2O[C@@H]1CN(C)Cc1ccc(Cl)c(Cl)c1
AC50 [2]: 3.43 µM (active)

C[C@H](CO)N1C[C@H](C)[C@H](CN(C)Cc2ccc(C(F)(F)F)cc2)OCCCC[C@H](C)Oc2ccc(NC(=O)NC3CCCCC3)cc2C1=O
AC50 [15]: 10.1 µM (active) | AC50 [16]: 41.6 µM (active) | AC50 [17]: 41.7 µM (active)

C[C@H](CO)N1C[C@H](C)[C@H](CN(C)C(=O)C2CC2)OCc2ccccc2-c2c(n(C)c3ccccc23)C1=O
AC50 [25]: 0.426 µM (active) | AC50 [26]: 0.836 µM (active)

COc1cc2cc(Oc3ccc4ccc(=O)oc4c3)c(=O)oc2cc1O [DAPHNORETIN]
AC50 [4]: 0.501 µM (inconclusive)

CC(=O)NNc1ccccc1
AC50 [4]: 31.6 µM (inconclusive)
